Reference: patent US11026943B2, “Aminoquinoline derivatives and uses thereof” (UNIVERSITY OF DELHI, priority 2012, dated 2021)

Columns and labels:
PC12 cells = test: 6-OHDA toxicity in PC12 cells (MTT reduction assay); assay type: cell-based, rat
Method: Cell viabilities were determined by the conventional MTT reduction assay. After incubation for indicated times, cells were treated with the MTT solution (final concentration, 1 mg/ml, Sigma) for 1 h. Formazan grains formed in intact cells were solubilized with MTT Solubilization. Solution containing 10% Triton X-100 plus 0.1 N HCl in anhydrous isopropanol for 24 h and then absorbance at 570 nm was measured with a microplate reader (Molecular Devices, Menlo Park, Calif.).

[1] = tested on: LBDs of Nur77, GR, LXR, RXR, PPARα, PPARγ; test: Target selectivity: GAL4-LBD reporter assays of other nuclear receptors; assay type: cell-based; conditions: FIG. 19; 30 μM AQ
[2] = tested on: Nurr1 recruitment to TH promoter NL1 and NL3; test: Chromatin immunoprecipitation in PC12 cells; assay type: cell-based, rat; conditions: 20 μM AQ or 75 μM CQ for 15 hrs
Method: Error bars represent standard deviations.
Cells were washed with PBS, fixed with 1% formaldehyde, lysed, and sonicated according to the manufacturer's instruction (Active Motif). 25 μg of soluble chromatin DNA were co-immunoprecipitated 1 μg of Nurr1 specific antibody (E-20, Santa Cruz) or control antibody (rabbit IgG, santa Cruz). […] Values are shown as fold induction compared to mock treated control cells.

Nurr1 = biological target: T1, Nurr1 (Mus musculus, UniProt Q06219); test: High-throughput cell-based screen of Nurr1-dependent TH promoter activation; conditions: library of 960 FDA-approved drugs
T1 construct: Full-length mouse Nurr1cDNA was amplified by RT-PCR from pSV40Nurr1; expressed in transfected cells; host or cells: SK-N-BE(2)C human neuroblastoma cells

Nurr1 LBD = Nurr1 LBD (Mus musculus, UniProt Q06219); test: Nurr1 LBD GAL4 reporter assay (pSVGAL(DBD)-N(LBD), p8xGAL-Luc) in SK-N-BE(2)C cells; assay type: cell-based; conditions: read-out: EC50 Nurr1 LBD-based reporter activity
Excerpt: The pTH2600LUC reporter construct contains the 2.6 kb upstream sequences of the rat tyrosine hydroxylase gene in front of a firefly luciferase gene in pGL3-basic vector. A Nurr1-expression plasmid, pSV40Nurr1, was kindly provided by Dr Orla M. Conneely at Baylor College of Medicine (Houston, Tex., USA). […] The VP16/SRC1 and VP16/SRC3 hybrid were constructed by inserting the transactivation domain of the VP16 protein upstream of SRC1 and SRC3, respectively. […] The recombinant proteins were purified by Ni-NTA column chromatography (Qiagen) according to the manufacturer's instruction. The integrity of all sequences was verified by DNA sequence analyses.
Human neuroblastoma SK-N-BE(2)C cells were maintained in Dulbecco's modified Eagle's medium (DMEM) supplemented with 10% fetal bovine serum. All culture media contained 100 units/ml penicillin and 100 μg/ml streptomycin. For transfection, cells were plated at 1.5×10^5 cells/well in the DMEM media without antibiotic into 24-well plates 1 day prior to transfection. Transfections were carried out by the Lipofectamine plus (Invitrogen) according to the manufacture's protocol. Total DNA amount was 0.5 μg per well with 0.1 μg of pRSV-β-gal as an internal control. 6 hours after transfection, compounds in the DMEM media with 1% charcoal-stripped fetal calf serum was added and incubated overnight. Cells from each well were lysed with 100 μl of lysis buffer, which contains 25 mM Tris-phosphate (pH 7.8), 2 mM DTT, 2 mM CDTA (1,2-diaminocyclohexane-N,N,N′,N′-tetraacetic acid), 10% glycerol, and 1% Triton X-100. Then equal volume of firefly luciferase substrate was added and the luciferase activity was measured using a Luminometer plate reader and normalized for beta-galactosidase activity.

aphakia (ak/ak) mice = test: Behavioral studies in ak/ak mice (Pole, Challenging Beam, Cylinder, Rotarod) and SN histology; assay type: in vivo, mouse
Method: Either 20 mg/kg of AQ (AQ group) or the saline (Saline group) was intraperitoneally injected (I.P.) twice per day for two weeks. 8 mg/kg of L-DOPA (L-DOPA group) in 0.5% DMSO was injected (I.P.) once per day for two weeks. The L-DOPA group was given 12.5 mg/kg benserazide 20 min prior to administration of L-DOPA.
Each ak mouse was randomly assigned into one of three experiment groups, (1) saline group (negative control; n=8), (2) L-DOPA group (positive control; n=8), (3) AQ group (n=10). Each WT or rdl mouse was randomly divided into two groups, (1) saline group (n=8) and (2) AQ group (n=10). Pole Test, Challenging Beam Traversal Test, and Cylinder Test were performed at two time points, immediately and one month after two weeks of either AQ or saline injection. Each mouse ran each task twice. Rota rod test was performed immediately after two weeks of either drug or saline injection. Acclimation and data recording process were identical to the rat study described above. All tasks were performed as described previously^11 and the short description of each task is as follows.
A vertical wooden pole 50 cm in length and 1 cm in diameter was used for Pole Test. Each mouse was gently placed head upwards on top of the pole which is placed on each animal's home cage. Each mouse ran tree trials per session during 2 training sessions. On the testing day, mice ran three trials. Two parameters (the meantime to orient downward and the total travel mean time) were used for the statistical analysis.
A 1 m length of plastic beam was used for Challenging Beam Traversal Test. The starting width of the beam was 3.5 cm and it gradually narrowed in 1 c increments to 0.5 cm at the other end site of the beam. Animals were trained to walk from the wide end to the other end for 2 sessions, three trials per session before testing. A mesh grid was removed during the training period. On the testing day, a mesh grid (1 cm square) covering the beam surface was equipped leaving a […] room between the grid and the beam surface. On the testing day, mice ran three trials. Two parameters (the mean number of steps taken by each animal and the mean time to traverse across three trials) were collected and used for statistical analysis.
A small transparent cylinder (height, 15.5 cm; diameter, 12.7 cm) was used to evaluate somatosensory motor function. Mice were placed in the cylinder and their rears were counted for 5 minutes. The forelimb touching the Plexiglas wall (a vertical movement) is defined as a full rear. The mean number of forelimb use was calculated for the statistical analysis. […]
The Rota rod equipment (Med-Associates, Inc, Albans, Vt., USA) was used to measure motor coordination. […] The mean latency to fall off from the Rota rod was measured for the statistical analysis. […]

Sequence of Nurr1 LBD (Q06219 328-598): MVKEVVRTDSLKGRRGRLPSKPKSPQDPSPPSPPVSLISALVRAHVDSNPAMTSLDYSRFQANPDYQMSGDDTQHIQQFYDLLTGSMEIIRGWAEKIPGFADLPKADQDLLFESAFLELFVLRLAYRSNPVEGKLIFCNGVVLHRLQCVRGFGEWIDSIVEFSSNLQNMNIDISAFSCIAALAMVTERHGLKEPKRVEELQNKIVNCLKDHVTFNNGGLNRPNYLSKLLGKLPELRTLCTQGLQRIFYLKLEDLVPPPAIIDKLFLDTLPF
T1 sequence (Q06219 whole entry): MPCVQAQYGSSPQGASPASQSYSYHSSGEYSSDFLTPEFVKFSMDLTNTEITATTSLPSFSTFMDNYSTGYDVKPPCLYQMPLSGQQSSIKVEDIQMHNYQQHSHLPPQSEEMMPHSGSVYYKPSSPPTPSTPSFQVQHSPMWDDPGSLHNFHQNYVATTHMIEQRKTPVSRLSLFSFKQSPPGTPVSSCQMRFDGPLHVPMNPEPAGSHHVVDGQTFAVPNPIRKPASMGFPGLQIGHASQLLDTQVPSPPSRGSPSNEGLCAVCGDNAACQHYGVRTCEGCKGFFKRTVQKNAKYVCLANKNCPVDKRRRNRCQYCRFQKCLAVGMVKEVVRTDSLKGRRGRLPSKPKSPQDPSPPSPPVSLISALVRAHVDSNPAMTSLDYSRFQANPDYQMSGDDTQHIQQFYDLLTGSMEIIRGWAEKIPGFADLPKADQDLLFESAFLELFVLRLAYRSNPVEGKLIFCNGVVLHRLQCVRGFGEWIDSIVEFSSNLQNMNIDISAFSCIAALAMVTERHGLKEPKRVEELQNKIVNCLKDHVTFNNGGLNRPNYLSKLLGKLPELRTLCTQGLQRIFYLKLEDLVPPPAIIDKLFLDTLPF

transcriptional activity of other nuclear receptors [1]: unable to induce
screen outcome (Nurr1): hit compounds
EC50 (Nurr1 LBD): ~20 µM
Compound: CCN(CC)Cc1cc(Nc2ccnc3cc(Cl)ccc23)ccc1O [AQ, amodiaquine]
neuroprotective effect in PC12 cells (PC12 cells): neuroprotective effect
Nurr1 recruitment to NL1 and NL3 sites of the TH promoter [2]: recruited to both NL1 and NL3 sites
motor deficits in Pole, Challenging Beam, Cylinder and Rotarod tests (aphakia (ak/ak) mice; 2 weeks of AQ 20 mg/kg i.p. twice per day): significantly improved
activated microglia (CD11b) in the SN (aphakia (ak/ak) mice; after AQ for 2 weeks): reduced to the level of wild type mice
number of TH+ neurons in ak/ak mice (aphakia (ak/ak) mice; data not shown): not detectably altered
